Assay results as given in US20130196935A1, “SYNTHETIC GLYCOAMINE COMPOUNDS” (ANIMAL CELL THERAPIES INC., priority 2012, published 2013).
“And” between values parts separate entries of the source, which are not always exact repeats. Equal entries are not always repeated.

Experiments:
SVR cells [1] = experiment: Clonogenic survival (colony formation) of SVR cells; type: cell-based; conditions: for Colony # (single well): 200 SVR cells per well; for Colony # Average: average of 4 wells; for inhibition of colony formation compared to the control: two-tailed t-test; for inhibition of SVR cell colony formation: concentrations 1 mM and higher, compared to control
Experimental: 1. Testing concentrations of ACT-1 and ACT-2: 1 mM, 500 μM, 250 μM, 125 μM, and 62.5 μM. 2. Prepared 2 mM ACT-1=0.91 mg/mL and 2 mM ACT-2=0.91 mg/mL in SVR complete culture medium. Sterilized the test article solutions by filtering through 0.2 μm syringe filters (Whatman Puradisc 25 mm, Cat #6780-2502). 3. Prepared solutions in 2× testing concentrations (2 mM, 1 mM, 500 μM, 250 μM, 125 μM and 62.5 μM) by preparing 2× dilution from 2 mM stock solution (mixing 2.4 mL culture medium with 2.4 mL of 2 mM solution, and make serial 2× dilutions the same way). 4. Pipetted 0.5 mL of test articles to 24-well plates according to the layout below (ACT-1 in one plate and ACT-2 in another plate). Each concentration will be tested in quadruplicate.
5. Trypsinized SVR cells (P1) and prepared 400 cells/mL solution in culture medium. Pipetted 0.5 mL cell solution to each well (200 cells/well). Mixed well by gentle pipetting. 6. Cultured cells at 37° C. incubator for 6 days. 7. Aspirated medium from the wells. Rinsed cells once with 1 mL of PBS (LONZA, Cat #: 17-516Q). 8. Fixed cells with 0.5 mL of freshly prepared 4% paraformaldehyde (PFA) (1:8 dilution of 32% PFA solution in PBS; 32% PFA solution: Electron Microscopy Sciences Cat #:15714) in PBS at RT for 20 min. Removed PFA and washed cells once with 1 mL PBS. 9. Stained cells with 0.3 mL of Mayer's hematoxylin solution (Sigma Cat#: MHS1-100ML) at RT for 15 min. Removed hematoxylin solution and rinsed cells twice with 1 mL of warm tap water. 10. Counted cell colonies under microscope with 40× magnification (divide the wells with makers into 4 sections. Count the numbers of colonies from each section and add the numbers to yield the final colony numbers).
1. Testing concentrations of ACT-1 and ACT-2: 4 mM, 2 mM, 1 mM, and 0.5 mM. 2. The experimental procedures were the same as in Experiment 1-1, except that the total volume in each well was 0.6 mL (0.3 mL of 2× concentrated test articles and 0.3 mL of 667 cells/mL cell solution).
3. Cultured cells at 37° C. incubator for 6 days. 4. Visualized the cell colonies by staining with hematoxylin as described above. 5. Counted the colonies under microscope.

[2] = tested on: primary bovine aortic endothelial cells (BAEC); experiment: MTS cytotoxicity assay on primary BAEC; type: cell-based; conditions: 0.125-8 mM, 48 hours
Experimental: (§1) 1. Testing concentrations of ACT-1 and ACT-2: 8 mM, 4 mM, 2 mM, 1 mM, 0.5 mM, 0.25 mM and 0.125 mM. 2. Trypsinized exponentially growing BAECs (P1) and SVR cells (P4), and prepared 5×10^4 cells/mL cell solution for BAECs and […] for SVR cells. Add 100 μl of cell solution to 96-well plates to achieve 5,000 cells/well for BAECs and 1,000 cells/well for SVR cells. Incubated cells at 37° C. overnight. 3. Prepared 8 mM=3.64 mg/mL and 8 mM ACT-2=3.62 mg/mL in BAEC complete culture medium. Sterilized the drug solutions by filtering through 0.2 μm syringe filters. 4. Prepared 2× serial dilutions from 8 mM stock solution by mixing 0.6 mL drug solution with 0.6 mL culture medium. 5. Aspirated medium from wells and added 80 μl of test article solutions to the wells according to the layout below.
(§2) 6. Incubated cells at 37° C. for 48 hours. 7. Aspirated the medium from wells and added fresh 70 μl culture medium to the wells. 8. Prepared MTS reagent (Promega CellTiter 96 Aqueous MTS assay reagents, Cat #G5421) by mixing 2.4 mL MTS, 120 μl PMS and 3.779 mL culture medium. Added 50 μl MTS assay reagent to the wells using a multiple channel pipette. 9. Incubate at 37° C. for 2 hours. Read absorbance at 490 nm using a plate reader.

[3] = MTS cytotoxicity assay on primary BAEC; type: cell-based, bovine; conditions: bovine, primary bovine aortic endothelial cells (BAEC), read-out: Viability of BAEC cells compared to control, Ave (%)
Experimental: as §1, §2

SVR cells [4] = experiment: MTS cytotoxicity assay on SVR cells; type: cell-based; conditions: for significance level P, cytotoxic effect on SVR cells compared to the control: 8 mM, two-tailed t-test; for cytotoxic effect on SVR cells: only at 8 mM, 48 hours, MTS
Experimental: as §1, §2

[5] = MTS cytotoxicity assay on SVR cells; type: cell-based; conditions: mouse, SVR cells, 48 hours, MTS, read-out: Viability of SVR cells compared to control, Ave (%)
Experimental: as §1, §2

SVR cells [6] = experiment: TUNEL assay, apoptosis induction of SVR cells; type: cell-based; conditions: 2 mM, 24 hours
Experimental: 1. Testing concentrations of ACT-1 and ACT-2: 2 mM. 2. Prepared 4 mM ACT-1=1.82 mg/mL and 4 mM ACT-2=1.81 mg/mL in complete culture medium. Sterilized the drug solutions by filtering through 0.2 μm syringe filters. 3. Added 100 μl of test articles or culture medium to 4 wells for each ACT-1 and ACT-2 in a 96-well plate. Added 100 μl of culture medium to 5 wells (for non-treated and DNase treatment controls). 4. Trypsinized SVR cells (P3) and prepared 5×10^3 cells/mL solution in culture medium. Added 100 μl of cell solution to each well (500 cells/well). Mixed well by gentle pipetting. 5. Incubated at 37° C. for 24 hours. 6. Removed medium and added 100 μl of 4% PFA in PBS to the wells. Incubated at room temperature for 15 min. 7. Removed PFA solution and 100 μl of permeabilization reagent (0.25% Triton X-100 in PBS) (Triton X-100: Sigma Cat #: T8787-100ML). Incubated at room temperature for 20 min. Washed twice with deionized water. 8. TUNEL reaction was then carried out exactly as the protocol provided by the kit (Invitrogen Click-iT TUNEL Alexa Fluor Imaging Assay Kit, Cat #: C10245). Treated one well (culture medium control) with DNase as positive control for the TUNEL reaction. The reaction volume for each well was 50 μl. 9. After TdT and Click-iT reactions, DNA was stained with Hoechst 33342 (provided by the kit) 1:5,000 in PBS at RT for 15 min. Washed wells three times with PBS. 10. […]

[7] = Experiment A, 62.5 μM, six days after treatment
[8] = Experiment A, 62.5 μM, six days
[9] = Experiment A, 125 μM, six days after treatment
[10] = Experiment A, 250 μM, six days after treatment
[11] = Experiment A, 500 μM, six days after treatment
[12] = Experiment A, 1000 μM, six days after treatment
[13] = Experiment A, 1000 μM, six days
[14] = Experiment B (higher concentrations), 0.5 mM, six days
[15] = Experiment B (higher concentrations), 1 mM, six days
[16] = Experiment B (higher concentrations), 2 mM, six days
[17] = Experiment B (higher concentrations), 4 mM, six days

CC(C)CC(NC[C@@]1(O)OC[C@@H](O)[C@@H](O[C@@H]2O[C@H](CO)[C@H](O)[C@H](O)[C@H]2O)[C@@H]1O)C(=O)O (stereo in doubt) [ACT-1]
Colony # (single well) (SVR cells [1]; [7]): 43 and 42 and 41 and 39
Colony # Average (SVR cells [1]; [8]): 41.3
Colony # (single well) (SVR cells [1]; [9]): 44 and 41 and 39
Colony # Average (SVR cells [1]; Experiment A, 125 μM, six days): 40.8
Colony # (single well) (SVR cells [1]; [10]): 43 and 40 and 41 and 34
Colony # Average (SVR cells [1]; Experiment A, 250 μM, six days): 39.5
Colony # (single well) (SVR cells [1]; [11]): 42 and 41 and 33
Colony # Average (SVR cells [1]; Experiment A, 500 μM, six days): 39.3
Colony # (single well) (SVR cells [1]; [12]): 34 and 32
Colony # Average (SVR cells [1]; [13]): 33.0
inhibition of colony formation compared to the control (SVR cells [1]; Experiment A, 1 mM): significant inhibition of colony formation
Colony # (single well) (SVR cells [1]; [14]): 40 and 45 and 35
Colony # (single well) (SVR cells [1]; [15]): 38 and 32 and 33 and 34
Colony # (single well) (SVR cells [1]; [16]): 1 and 2
Colony # (single well) (SVR cells [1]; [17]): 0
Colony # Average (SVR cells [1]; Experiment B, 0.5 mM, six days): 40.0
Colony # Average (SVR cells [1]; Experiment B, 1 mM, six days): 34.3
Colony # Average (SVR cells [1]; Experiment B, 2 mM, six days): 1.8
Colony # Average (SVR cells [1]; Experiment B, 4 mM, six days): 0.0
inhibition of SVR cell colony formation (SVR cells [1]; Experiment B): inhibited SVR cell colony formation
cytotoxic effect on primary BAECs [2]: did not show significant cytotoxic effect
viability at 48 h, 0.125 mM [3]: 104%
viability at 48 h, 0.25 mM [3]: 112%
viability at 48 h, 0.5 mM [3]: 118%
viability at 48 h, 1 mM [3]: 126%
viability at 48 h, 2 mM [3]: 122%
viability at 48 h, 4 mM [3]: 112%
viability at 48 h, 8 mM [3]: 99.4%
significance level P, cytotoxic effect on SVR cells compared to the control (SVR cells [4]): 0.016
cytotoxic effect on SVR cells (SVR cells [4]): significant cytotoxic effect
viability at 48 h, 0.125 mM [5]: 97.4%
viability at 48 h, 0.25 mM [5]: 99.7%
viability at 48 h, 0.5 mM [5]: 100%
viability at 48 h, 1 mM [5]: 97.7%
viability at 48 h, 2 mM [5]: 95.8%
viability at 48 h, 4 mM [5]: 93.1%
viability at 48 h, 8 mM [5]: 71.2%
TUNEL nuclear staining (apoptosis induction) (SVR cells [6]): nuclear staining was not observed

O=C(O)[C@H](CC1CC1)NC[C@@]1(O)OC[C@@H](O)[C@@H](O[C@@H]2O[C@H](CO)[C@H](O)[C@H](O)[C@H]2O)[C@@H]1O [ACT-2]
Colony # (single well) (SVR cells [1]; [7]): 49 and 51 and 43 and 48
Colony # Average (SVR cells [1]; [8]): 47.8
Colony # (single well) (SVR cells [1]; [9]): 44 and 42 and 39
Colony # Average (SVR cells [1]; Experiment A, 125 μM, six days): 41.8
Colony # (single well) (SVR cells [1]; [10]): 50 and 44 and 39 and 37
Colony # Average (SVR cells [1]; Experiment A, 250 μM, six days): 42.5
Colony # (single well) (SVR cells [1]; [11]): 39 and 31 and 33 and 35
Colony # Average (SVR cells [1]; Experiment A, 500 μM, six days): 34.5
inhibition of colony formation compared to the control (SVR cells [1]; Experiment A, 0.5 mM): significant inhibition of colony formation
Colony # (single well) (SVR cells [1]; [12]): 33 and 36 and 39 and 28
Colony # Average (SVR cells [1]; [13]): 34.0
Colony # (single well) (SVR cells [1]; [14]): 38 and 34 and 40 and 31
Colony # (single well) (SVR cells [1]; [15]): 13 and 23 and 19 and 16
Colony # (single well) (SVR cells [1]; [16]): 0
Colony # (single well) (SVR cells [1]; [17]): 0
Colony # Average (SVR cells [1]; Experiment B, 0.5 mM, six days): 35.8
Colony # Average (SVR cells [1]; Experiment B, 1 mM, six days): 17.8
Colony # Average (SVR cells [1]; Experiment B, 2 mM, six days): 0.0
Colony # Average (SVR cells [1]; Experiment B, 4 mM, six days): 0.0
inhibition of SVR cell colony formation (SVR cells [1]; Experiment B): inhibited SVR cell colony formation
cytotoxic effect on primary BAECs [2]: did not show significant cytotoxic effect
viability at 48 h, 0.125 mM [3]: 107%
viability at 48 h, 0.25 mM [3]: 133%
viability at 48 h, 0.5 mM [3]: 136%
viability at 48 h, 1 mM [3]: 132%
viability at 48 h, 2 mM [3]: 133%
viability at 48 h, 4 mM [3]: 118%
viability at 48 h, 8 mM [3]: 106%
significance level P, cytotoxic effect on SVR cells compared to the control (SVR cells [4]): 0.018
cytotoxic effect on SVR cells (SVR cells [4]): significant cytotoxic effect
viability at 48 h, 0.125 mM [5]: 98.2%
viability at 48 h, 0.25 mM [5]: 105%
viability at 48 h, 0.5 mM [5]: 98.7%
viability at 48 h, 1 mM [5]: 92.5%
viability at 48 h, 2 mM [5]: 95.1%
viability at 48 h, 4 mM [5]: 87.8%
viability at 48 h, 8 mM [5]: 76.1%
TUNEL nuclear staining (apoptosis induction) (SVR cells [6]): nuclear staining was not observed
